Several values for one entry are separate records, joined by “and”; a condition that tells them apart may be missing. Equal entries are not always repeated. Where two headings read alike, the source gives them in different places.
Key:
[1] = Octanol/water distribution coefficient from solubilities; assay type: physicochemical; settings: pH=7.1
[2] = set-up: method as in FDA report by Vertex Pharmaceuticals Incorporated; settings: patients, oral, ref FDA report by Vertex Pharmaceuticals Incorporated, cited from earlier work
WT CFTR = molecular target: T1, WT CFTR (Homo sapiens, UniProt P13569); assay: Ensemble fitting of gating models (Schemes 3 and 4) to on-off current time courses; assay type: biochemical; settings: for EC50 / Kd: calculated from fit parameters; for kin: constrained kin/kout = 62580; for Kd: read-out: Kd;mem
T1 construct: expressed in transfected cells; host or cells: Xenopus laevis oocytes injected with cRNA transcribed from pGEMHE-CFTR
T1 sequence (P13569 whole entry): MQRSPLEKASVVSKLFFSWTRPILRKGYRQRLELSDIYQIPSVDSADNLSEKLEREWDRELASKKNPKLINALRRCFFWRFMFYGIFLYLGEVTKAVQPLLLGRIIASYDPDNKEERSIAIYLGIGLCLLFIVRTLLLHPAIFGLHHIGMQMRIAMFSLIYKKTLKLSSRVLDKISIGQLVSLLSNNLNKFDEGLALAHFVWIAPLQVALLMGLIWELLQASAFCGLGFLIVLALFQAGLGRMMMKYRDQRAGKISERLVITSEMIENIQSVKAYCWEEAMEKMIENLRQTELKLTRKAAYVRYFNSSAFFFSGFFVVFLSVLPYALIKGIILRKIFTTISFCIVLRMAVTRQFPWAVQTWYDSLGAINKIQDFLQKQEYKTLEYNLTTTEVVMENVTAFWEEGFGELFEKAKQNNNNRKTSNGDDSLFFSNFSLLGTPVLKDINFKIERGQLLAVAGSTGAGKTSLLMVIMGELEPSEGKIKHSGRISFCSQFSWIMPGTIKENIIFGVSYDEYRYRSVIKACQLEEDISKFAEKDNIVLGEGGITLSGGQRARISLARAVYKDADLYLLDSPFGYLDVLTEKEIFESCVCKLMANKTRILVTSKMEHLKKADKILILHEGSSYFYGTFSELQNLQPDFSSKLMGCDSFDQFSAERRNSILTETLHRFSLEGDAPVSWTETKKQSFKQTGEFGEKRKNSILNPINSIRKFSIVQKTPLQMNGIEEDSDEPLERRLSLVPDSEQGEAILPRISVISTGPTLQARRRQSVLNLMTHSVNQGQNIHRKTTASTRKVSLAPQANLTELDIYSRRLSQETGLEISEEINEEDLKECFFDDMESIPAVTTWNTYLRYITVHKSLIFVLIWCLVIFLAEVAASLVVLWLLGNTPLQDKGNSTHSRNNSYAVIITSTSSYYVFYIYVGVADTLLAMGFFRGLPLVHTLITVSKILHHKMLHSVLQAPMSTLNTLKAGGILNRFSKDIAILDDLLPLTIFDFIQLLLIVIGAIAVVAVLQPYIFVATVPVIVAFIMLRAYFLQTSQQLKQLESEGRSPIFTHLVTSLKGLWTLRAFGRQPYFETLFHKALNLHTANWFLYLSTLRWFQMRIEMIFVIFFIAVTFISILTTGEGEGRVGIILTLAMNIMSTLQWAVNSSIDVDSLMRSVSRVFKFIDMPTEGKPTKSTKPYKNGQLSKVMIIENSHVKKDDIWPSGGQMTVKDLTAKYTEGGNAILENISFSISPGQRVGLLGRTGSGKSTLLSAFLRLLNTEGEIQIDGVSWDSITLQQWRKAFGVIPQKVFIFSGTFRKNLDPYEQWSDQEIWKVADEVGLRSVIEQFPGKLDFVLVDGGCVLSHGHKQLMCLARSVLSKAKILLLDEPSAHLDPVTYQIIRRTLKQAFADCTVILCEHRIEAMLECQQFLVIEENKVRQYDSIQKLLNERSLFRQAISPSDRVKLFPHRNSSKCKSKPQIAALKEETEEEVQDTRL
Description: We next attempted to interpret the observed complex kinetics of the drug effects in terms of various molecular models (Figure 5a–d), by performing global fits of each model (Figure 5f, colored lines) to the ensemble of four experimentally observed current time courses: activation and deactivation upon addition and removal of 0.01x saturated (Figure 5f, gray trace) and 1x saturated (Figure 5f, black trace) Vx-770.
An alternative mechanism that could explain delayed activation by the drug is the presence of multiple drug binding sites, all of which must be occupied to switch the channel to a high open probability state. […] We therefore evaluated a simplistic model which postulates independent drug binding to two sites, with identical affinities, but a substantial change in open probability (from Po;bas to Po;max) only for diliganded channels (Scheme 3, Figure 5c).
Finally, assuming a two-compartment membrane and two drug-binding sites, both accessible from the outer leaflet (Scheme 4, Figure 5d), afforded a further small improvement (Figure 5f, red fit lines) relative to Scheme 3, albeit at the expense of an extra free parameter (Figure 5e, right).
The dynamic equations that describe the kinetic models depicted in Figure 5 are as follows:
• dx1(t)/dt = kin⋅Vc – 2⋅kout⋅x1(t) – kon'⋅(2⋅x2(t)+x3(t))⋅x1(t) + koff⋅(2⋅(Ct–x2(t)–x3(t))+x3(t)) • dx2(t)/dt = – 2⋅kon'⋅x1(t)⋅x2(t) + koff⋅x3(t) • dx3(t)/dt = 2⋅kon'⋅x1(t)⋅x2(t) + 2⋅koff⋅(Ct–x2(t)–x3(t)) – (koff +kon'⋅x1(t))⋅x3(t)
where x1(t) is the concentration of free Vx-770 in the membrane, x2(t) is the concentration of unliganded CFTR channels in the membrane, x3(t) is the concentration of monoliganded CFTR channels in the membrane, Ct is the total concentration of CFTR channels in the membrane, and Vc is the concentration of Vx-770 in the cytosol.
• dx1(t)/dt = kin⋅Vc – (kout +kflip)⋅x1(t) + kflip⋅x2(t) • dx2(t)/dt = kflip⋅x1(t) – (kout +kflip)⋅x2(t) – kon'⋅(2⋅x3(t)+x4(t))⋅x2(t) + koff⋅(2⋅(Ct–x3(t)–x4(t))+x4(t)) • dx3(t)/dt = – 2⋅kon'⋅x2(t)⋅x3(t) + koff⋅x4(t) • dx4(t)/dt = 2⋅kon'⋅x2(t)⋅x3(t) + 2⋅koff⋅(Ct–x3(t)–x4(t)) – (koff +kon'⋅x2(t))⋅x4(t)
where x1(t) is the concentration of Vx-770 in the inner membrane leaflet, x2(t) is the concentration of free Vx-770 in the outer membrane leaflet, x3(t) is the concentration of unliganded CFTR channels in the outer membrane leaflet, x4(t) is the concentration of monoliganded CFTR channels in the outer membrane leaflet, Ct is the total concentration of CFTR channels in the outer membrane leaflet, and Vc is the concentration of Vx-770 in the cytosol.
To calculate the value of Ct, the total number of channels in the patch (N) was estimated by assuming Po;bas=0.16 for prephosphorylated channels in ATP (cf., Figure 2c). For Schemes 1 and 3 the volume of the membrane patch was taken as 10^−16 liter (assuming a macroscopic patch surface area of ~4 μm^2 increased by ~5 fold at a microscopic level due to the presence of microvilli ([Dascal, 1987]), and a membrane thickness of ~5 nm), and for Schemes 2 and 4 the volume of the outer membrane leaflet was taken as 5⋅10^−17 liter. Ct was then calculated as N/NA divided by the relevant volume (NA, Avogadro's number).
For the ensemble fitting, all experimental current traces were normalized to their steady-state values observed prior to exposure to Vx-770. Predicted normalized on- and off- current time courses for each model were calculated from the above dynamic equations by solving for the time-dependent evolution of the vector x, using a modified Euler's method ([Press, 1992]). For the on- time courses the initial values for all xi were set to zero, for the off- time courses the final x vector of the preceding on- time course served as the initial vector while Vc was set to zero. […]

[3] = Scheme 3, average of global fits to three pairs of time courses
[4] = Scheme 4, average of global fits to three pairs of time courses

In the case of CC(C)(C)c1cc(C(C)(C)C)c(NC(=O)c2c[nH]c3ccccc3c2=O)cc1O [Vx-770, ivacaftor], the logD ([1]; octanol/water) is given as 4.8, the “octanol/water distribution coefficient Doct/wat” value [1] is given as 62580 and ~ 60000 and the peak plasma concentration ([2]; twice daily 150 mg (therapeutic)) is given as ~ 4 μM. The peak plasma concentration ([2]; twice daily 450 mg (supratherapeutic)) was greater than 10 µM, the EC50 (WT CFTR; Scheme 3, Figure 5f data set, read-out: K0.5;aq) was 0.00074 µM and the kin (WT CFTR; Scheme 3, average (mean ± S.E.M.) of global fits to three pairs of time courses) was 4034 ± 464 s⁻¹. The “Po;max/Po;bas” value (WT CFTR; [3]) was 3.935 ± 0.001, the koff (WT CFTR; [3]) was 0.00745 ± 0.000871 s⁻¹ and the kon (WT CFTR; [3]) was 870 ± 104 M⁻¹ s⁻¹. It also gave a kout (WT CFTR; [3]) of 0.06446 ± 0.00742 s⁻¹, an EC50 (WT CFTR; Scheme 3, average of three fits, read-out: K0.5;aq) of 0.000675 ± 8.95e-05 µM and an EC50 (WT CFTR; Scheme 3, average of three fits, read-out: K0.5;mem) of 21.1 ± 2.8 µM. It also gave a Kd (WT CFTR; Scheme 3, average of three fits) of 8.75 ± 1.16 µM, a koff (WT CFTR; Scheme 3, global fit to data set of Figure 5f) of 0.00651 s⁻¹ and an EC50 (WT CFTR; Scheme 4, Figure 5f data set, read-out: K0.5;aq) of 0.00072 µM. The kin (WT CFTR; Scheme 4, average (mean ± S.E.M.) of global fits to three pairs of time courses) was 9794 ± 531 s⁻¹, the “Po;max/Po;bas” value (WT CFTR; [4]) was 3.996 ± 0.007 and the kflip (WT CFTR; [4]) was 0.04408 ± 0.00583 s⁻¹. The koff (WT CFTR; [4]) was 0.01075 ± 9e-05 s⁻¹, the kon (WT CFTR; [4]) was 3700 ± 627 M⁻¹ s⁻¹ and the kout (WT CFTR; [4]) was 0.1565 ± 0.0085 s⁻¹. It also gave an EC50 (WT CFTR; Scheme 4, average of three fits, read-out: K0.5;aq) of 0.000669 ± 9.55e-05 µM, an EC50 (WT CFTR; Scheme 4, average of three fits, read-out: K0.5;mem) of 7.5 ± 1.46 µM and a Kd (WT CFTR; Scheme 4, average of three fits) of 3.11 ± 0.605 µM. The koff (WT CFTR; Scheme 4, global fit to data set of Figure 5f) was 0.0106 s⁻¹.
